Assay results from patent publication US12275731B2, “Azaindole inhibitors of wild-type and mutant forms of LRRK2” (DANA-FARBER CANCER INSTITUTE, INC., priority 2018, dated 2025).

Tests used:
Assay in all cases: KinomeScan profiling
Format in all cases: binding
HIPK4 = molecular target: T1, HIPK4 (Homo sapiens, UniProt Q8NE63); settings: HIPK4, 1 μM; read-out: % control
T1 sequence (Q8NE63 1-616): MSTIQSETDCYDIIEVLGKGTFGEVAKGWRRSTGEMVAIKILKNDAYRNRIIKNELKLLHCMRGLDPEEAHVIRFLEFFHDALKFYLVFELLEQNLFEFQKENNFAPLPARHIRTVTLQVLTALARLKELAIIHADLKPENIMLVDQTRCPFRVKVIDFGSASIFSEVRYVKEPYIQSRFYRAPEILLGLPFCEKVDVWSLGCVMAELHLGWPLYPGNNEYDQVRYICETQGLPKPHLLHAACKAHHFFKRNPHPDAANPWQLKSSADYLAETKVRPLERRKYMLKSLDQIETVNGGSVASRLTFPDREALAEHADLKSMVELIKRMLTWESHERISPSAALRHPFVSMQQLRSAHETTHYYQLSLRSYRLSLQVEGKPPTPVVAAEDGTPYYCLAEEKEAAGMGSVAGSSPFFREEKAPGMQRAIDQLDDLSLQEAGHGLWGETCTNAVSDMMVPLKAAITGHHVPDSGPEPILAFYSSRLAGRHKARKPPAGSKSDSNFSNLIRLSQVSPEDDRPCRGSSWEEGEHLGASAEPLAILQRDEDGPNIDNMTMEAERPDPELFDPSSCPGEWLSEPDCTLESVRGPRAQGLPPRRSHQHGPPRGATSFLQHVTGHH
How it was run: (§1)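 Normalised RLU (% control; DMSO 100%, positive control 0%) was measured for compounds dosed at 1 μM over 468 kinases, active cut-off <35%.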

FLT3(D835V) = molecular target: T2, FLT3(D835V) (Homo sapiens, UniProt P36888, D835V); settings: read-out: % control
T2 sequence (P36888 27-993 D835V): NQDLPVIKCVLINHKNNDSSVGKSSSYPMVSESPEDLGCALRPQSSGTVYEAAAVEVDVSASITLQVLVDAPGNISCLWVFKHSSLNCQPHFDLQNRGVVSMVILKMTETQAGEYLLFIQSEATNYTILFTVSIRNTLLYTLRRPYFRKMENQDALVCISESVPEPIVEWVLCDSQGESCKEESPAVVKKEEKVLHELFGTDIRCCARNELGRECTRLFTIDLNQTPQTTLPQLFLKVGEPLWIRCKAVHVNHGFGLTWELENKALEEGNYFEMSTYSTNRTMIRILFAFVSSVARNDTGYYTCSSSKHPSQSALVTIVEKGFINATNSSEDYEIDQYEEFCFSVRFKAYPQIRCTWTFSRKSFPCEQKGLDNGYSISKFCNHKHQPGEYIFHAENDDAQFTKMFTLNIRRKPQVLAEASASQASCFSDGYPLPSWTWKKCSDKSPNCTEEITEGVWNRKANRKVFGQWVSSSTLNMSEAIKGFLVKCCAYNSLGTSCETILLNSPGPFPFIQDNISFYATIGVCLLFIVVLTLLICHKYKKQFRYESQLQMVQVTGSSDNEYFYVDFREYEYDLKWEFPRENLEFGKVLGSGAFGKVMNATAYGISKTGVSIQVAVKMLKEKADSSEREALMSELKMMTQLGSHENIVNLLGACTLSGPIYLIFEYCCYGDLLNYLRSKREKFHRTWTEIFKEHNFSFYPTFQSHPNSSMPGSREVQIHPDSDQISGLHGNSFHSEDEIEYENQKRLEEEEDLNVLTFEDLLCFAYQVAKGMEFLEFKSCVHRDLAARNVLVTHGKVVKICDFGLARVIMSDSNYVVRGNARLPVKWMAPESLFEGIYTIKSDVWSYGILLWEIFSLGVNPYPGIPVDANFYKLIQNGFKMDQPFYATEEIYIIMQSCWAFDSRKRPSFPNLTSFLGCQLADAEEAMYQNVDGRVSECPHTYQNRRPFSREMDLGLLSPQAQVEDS
How it was run: as §1

DLK = molecular target: T3, DLK (Homo sapiens, UniProt Q12852); settings: read-out: % control
T3 sequence (Q12852 1-859): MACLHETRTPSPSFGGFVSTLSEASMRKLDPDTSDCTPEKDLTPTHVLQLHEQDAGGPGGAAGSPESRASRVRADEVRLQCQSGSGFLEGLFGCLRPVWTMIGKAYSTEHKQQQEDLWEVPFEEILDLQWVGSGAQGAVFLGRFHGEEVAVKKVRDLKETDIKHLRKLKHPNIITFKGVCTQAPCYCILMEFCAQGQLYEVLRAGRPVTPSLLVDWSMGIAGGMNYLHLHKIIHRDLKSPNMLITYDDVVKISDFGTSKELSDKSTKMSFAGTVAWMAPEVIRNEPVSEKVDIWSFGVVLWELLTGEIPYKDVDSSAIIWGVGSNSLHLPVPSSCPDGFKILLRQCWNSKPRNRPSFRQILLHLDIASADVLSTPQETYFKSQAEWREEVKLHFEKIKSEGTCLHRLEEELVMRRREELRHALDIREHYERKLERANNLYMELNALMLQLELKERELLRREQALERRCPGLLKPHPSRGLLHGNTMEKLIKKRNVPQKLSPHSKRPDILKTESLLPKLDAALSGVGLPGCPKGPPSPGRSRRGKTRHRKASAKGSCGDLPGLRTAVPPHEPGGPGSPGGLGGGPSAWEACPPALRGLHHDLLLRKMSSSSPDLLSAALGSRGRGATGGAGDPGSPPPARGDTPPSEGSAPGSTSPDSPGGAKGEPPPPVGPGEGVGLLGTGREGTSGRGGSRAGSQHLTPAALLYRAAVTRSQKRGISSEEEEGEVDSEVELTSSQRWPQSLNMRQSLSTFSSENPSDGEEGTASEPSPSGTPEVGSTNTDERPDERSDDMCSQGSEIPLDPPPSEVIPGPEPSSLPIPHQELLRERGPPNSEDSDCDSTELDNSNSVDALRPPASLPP
How it was run: as §1

SMILES	remaining binding at 1 µM (HIPK4) [%]	remaining binding at 1 µM (FLT3(D835V)) [%]	remaining binding at 1 µM (DLK) [%]
CNc1c(-c2cnn([C@H]3CCN(C(C)=O)C[C@@H]3F)c2)cnc2[nH]cc(Cl)c12 [Compound 77, 1-((3S,4S)-4-(4-(3-chloro-4-(methylamino)-1H-pyrrolo[2,3-b]pyridin-5-yl)-1H-pyrazol-1-yl)-3-fluoropiperidin-1-yl)ethan-1-one]	84	0.5	14
CNc1c(-c2ccc(C(=O)N3CCC(N4CCOCC4)CC3)cc2)cnc2[nH]cc(Cl)c12 [Compound 96, (4-(3-chloro-4-(methylamino)-1H-pyrrolo[2,3-b]pyridin-5-yl)phenyl)(4-morpholinopiperidin-1-yl)methanone]	64	2.9	24
O=C(c1ccc(-c2cnc3[nH]cc(Cl)c3c2NC2CCCC2)cc1)N1CCC(N2CCOCC2)CC1 [Compound 101, (4-(3-chloro-4-(cyclopentylamino)-1H-pyrrolo[2,3-b]pyridin-5-yl)phenyl)(4-morpholinopiperidin-1-yl)methanone]	79	6.4	65
